Assay results: patent US8212016B2, “NPC1L1 orthologues” (Schering Corporation, priority 2006, dated 2012)
Like-named read-outs stand apart in the source and are kept apart here.

How the values were obtained:
[1] = test system: ^14C-cholesterol absorption; assay: Acute cholesterol absorption assay; format: in vivo; conditions: rat, intraduodenal; read-out: rat ED50, inhibition of cholesterol absorption
Protocol: Acute cholesterol absorption assay. ^14C-cholesterol absorption was determined acutely in rats using conditions previously described (Van Heek et al., J. Pharmacol. Exp. Ther. 283: 157-163 (1997)). Compounds were dissolved in rat bile and delivered (1.0 ml) intraduodenally by bolus injection via an intestinal catheter, followed by 1.0 ml saline rinse (0.9%). Following a 30 min incubation, a cholesterol emulsion containing 3 mg cholesterol and 2 μCi ^14C-cholesterol (3 ml) was delivered to each rat as a bolus via intestinal catheter, followed by 1 ml saline rinse. Animals were sacrificed 90 min later and ^14C-cholesterol levels in plasma, liver, intestinal contents, and intestinal wall were determined.

[2] = test system: plasma and liver cholesterol; assay: Percent cholesterol lowering in plasma and liver; format: in vivo; conditions: hamster
human NPC1L1 = biological target: T1, human NPC1L1 (Homo sapiens, UniProt Q9UHC9, T1073A); assay: Radioligand binding of [3H]-glucuronidated ezetimibe (compound 4) to cell membranes
T1 construct: expressed in transfected cells
T1 sequence (Q9UHC9 22-1332 isoform Q9UHC9-2 T1046A): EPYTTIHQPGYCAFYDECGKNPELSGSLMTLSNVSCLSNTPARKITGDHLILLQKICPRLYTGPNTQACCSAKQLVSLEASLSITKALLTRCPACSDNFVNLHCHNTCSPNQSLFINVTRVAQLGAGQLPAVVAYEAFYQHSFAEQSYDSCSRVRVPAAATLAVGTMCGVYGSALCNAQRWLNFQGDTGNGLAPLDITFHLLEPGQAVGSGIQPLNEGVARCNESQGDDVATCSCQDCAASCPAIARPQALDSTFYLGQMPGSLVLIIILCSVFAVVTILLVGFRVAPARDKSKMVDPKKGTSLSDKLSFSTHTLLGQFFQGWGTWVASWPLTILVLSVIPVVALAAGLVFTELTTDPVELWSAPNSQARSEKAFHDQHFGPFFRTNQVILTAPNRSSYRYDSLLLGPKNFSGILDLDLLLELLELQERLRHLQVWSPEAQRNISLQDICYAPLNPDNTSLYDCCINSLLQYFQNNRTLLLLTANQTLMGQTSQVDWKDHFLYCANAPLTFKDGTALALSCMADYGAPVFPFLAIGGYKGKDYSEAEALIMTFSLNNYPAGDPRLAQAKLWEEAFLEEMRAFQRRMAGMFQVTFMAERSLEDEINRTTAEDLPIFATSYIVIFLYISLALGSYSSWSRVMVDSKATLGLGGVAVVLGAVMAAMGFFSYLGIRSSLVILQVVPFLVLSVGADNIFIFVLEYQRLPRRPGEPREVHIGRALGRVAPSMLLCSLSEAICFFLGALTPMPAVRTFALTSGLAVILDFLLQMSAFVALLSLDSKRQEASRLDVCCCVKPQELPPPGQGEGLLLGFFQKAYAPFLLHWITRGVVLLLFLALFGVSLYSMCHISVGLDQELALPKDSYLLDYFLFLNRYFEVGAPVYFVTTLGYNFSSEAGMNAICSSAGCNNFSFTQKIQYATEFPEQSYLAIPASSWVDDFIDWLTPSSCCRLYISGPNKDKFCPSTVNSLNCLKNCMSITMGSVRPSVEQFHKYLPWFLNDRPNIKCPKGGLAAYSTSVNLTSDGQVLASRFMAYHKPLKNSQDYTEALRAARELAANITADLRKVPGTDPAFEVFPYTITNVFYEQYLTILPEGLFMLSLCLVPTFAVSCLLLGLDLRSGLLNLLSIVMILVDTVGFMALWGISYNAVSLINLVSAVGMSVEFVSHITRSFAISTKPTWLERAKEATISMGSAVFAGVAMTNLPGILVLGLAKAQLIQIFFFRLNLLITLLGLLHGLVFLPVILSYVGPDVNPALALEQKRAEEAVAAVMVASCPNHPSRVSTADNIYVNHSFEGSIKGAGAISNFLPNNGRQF
Protocol: Cell Culture and Membrane Preparation. […] Cells were maintained in DMEM supplemented with 10% FBS, 100 U/ml pen/strep, and 500 μg/ml geneticin at 37° C., 5% CO2. All cell culture reagents were obtained from Invitrogen Life Technologies, (Carlsbad, Calif.). Cell membranes were prepared by lysing cells in 5 mM HEPES with protease inhibitors (Complete™ Protease Inhibitor Cocktail Tablets; Roche Diagnostics Corp., Indianapolis Ind.) for 15 min at 4° C. A membrane pellet was obtained by centrifuging the cell lysates at 12,000×g for 25 min. […] Radioligand. […] Natl. Acad. Sci. […] Reactions were performed in binding buffer (5 mM HEPES, 5.5 mM glucose, 117 mM NaCl and 5.4 mM KCl, pH 7.4). Cell membranes (50 μg in 20 μl) were added to each well. […] Binding reactions were incubated for 2 hours at 37° C. Samples were transferred to Unifilter-96 GF/C plates (Perkin Elmer, Wellesley Mass.) and filtered using a Brandel harvester (Gaithersburg Md.). […] Liquid scintillant (50 μl; Microscint-20, Perkin Elmer, Wellesley Mass.) was added and the bound radioactivity was measured using a microplate scintillation counter.

hamster NPC1L1 = hamster NPC1L1 (Mesocricetus auratus, UniProt A0MJA8); assay: Fluorescence NPC1L1 binding assay, HEK-293 cells, BODIPY-labeled compound 1
Protocol: (§1) Cell Culture and Membrane Preparation. Each plasmid pCR3.1 harboring NPC1L1 was prepared using standard molecular biology protocols. Stable cell lines expressing human, rhesus monkey, mouse, rat, hamster, canine or rabbit NPC1L1 were generated using Lipofectamine 2000 transfection reagent in HEK-293 cells according to the manufacturer's protocol. Cells were maintained in DMEM supplemented with 10% FBS, 100 U/ml pen/strep, and 500 μg/ml geneticin at 37° C., 5% CO2. All cell culture reagents were obtained from Invitrogen Life Technologies, (Carlsbad, Calif.). Cell membranes were prepared by lysing cells in 5 mM HEPES with protease inhibitors (Complete™ Protease Inhibitor Cocktail Tablets; Roche Diagnostics Corp., Indianapolis Ind.) for 15 min at 4° C. A membrane pellet was obtained by centrifuging the cell lysates at 12,000×g for 25 min. The membranes were resuspended in 5 mM HEPES with protease inhibitors and triturated with a 21G needle.
(§2) Fluorescence. Cells were plated into 384-well black/clear plates (BD Biosciences, Bedford Mass.) for binding experiments the following day. The media was aspirated. […] Media (20 μl) containing the indicated concentration of compound was then added to the wells. […] The binding reaction was allowed to proceed for 4 hours at 37° C. Subsequently the media was aspirated and the cells washed once with PBS.

rabbit NPC1L1 = rabbit NPC1L1 (Oryctolagus cuniculus, UniProt A0MJA7); assay: as above
Protocol: as §1, §2

canine NPC1L1 = canine NPC1L1 (Canis lupus familiaris, UniProt A0MJA4); assay: as above
Protocol: as §1, §2

For `O=C(O)[C@H]1O[C@@H](Oc2ccc([C@@H]3[C@@H](CC[C@H](O)c4ccc(F)cc4)C(=O)N3c3ccc(F)cc3)cc2)[C@H](O)[C@@H](O)[C@@H]1O` [compound 4, glucuronidated ezetimibe], the ED50 [1] was 1.9 µg/kg, the “cholesterol lowering Liver” value ([2]; liver) was 92% and the “cholesterol lowering Plasma” value ([2]; plasma) was 48%. It also gave a Kd (human NPC1L1) of 206 nM, a Ki (hamster NPC1L1; Hamster NPC1L1, competition with compound 1, read-out: Ki) of 370 nM and a Ki (hamster NPC1L1; Table 3, Hamster, read-out: Ki Hamster NPC1L1) of 371 nM. The Ki (rabbit NPC1L1; Rabbit NPC1L1, competition with compound 1, read-out: Ki) was 830 nM, the Ki (rabbit NPC1L1; Table 3, Rabbit, read-out: Ki Rabbit NPC1L1) was 830 nM and the “difference in affinity versus ezetimibe (compound 3)” value (rabbit NPC1L1; rabbit NPC1L1) was “less than 3 fold”. It also gave a Ki (canine NPC1L1; Canine NPC1L1, competition with compound 1, read-out: Ki) of 192 nM and a Ki (canine NPC1L1; Table 3, Dog, read-out: Ki Dog NPC1L1) of 190 nM.
